{
  "source": "ChEMBL document CHEMBL4145469",
  "about": "“Part II: New candidates of pyrazole-benzimidazole conjugates as checkpoint kinase 2 (Chk2) inhibitors” (Eur J Med Chem, 2018)",
  "experiment": "Toxicity in Sprague-Dawley rat assessed as mortality administered as po single dose measured up to 1 month post dose",
  "type": "organism-based",
  "conditions": "in vivo",
  "data": [
    {"smiles": "Cc1nn(-c2ccccc2)c(Oc2ccc(-c3nc4cc([N+](=O)[O-])ccc4[nH]3)cc2)c1/C=N/NC(N)=O", "values": [
      {"measurement": "LD50 at 1 month", "result": 500, "unit": "mg/kg"}
    ]}
  ]
}
